Data: paper PMC3921447, “Homologous and heterologous desensitization of guanylyl cyclase-B signaling in GH3 somatolactotropes” (Cell and Tissue Research, 2013)

Experiments:
GC-B = target: T1, GC-B (Rattus norvegicus, UniProt P16067); test: Agonist-induced GC-B internalization by confocal immunofluorescence in GH3 cells; assay type: cell-based; settings: 100 nM CNP, 0-4 h; n = 3; Fig. 5a-c
T1 construct: rapid homologous desensitization of endogenous GC-B receptors in GH3 cells; endogenous in cells; host or cells: GH3 rat somatolactotrope cells
T1 sequence (P16067 17-1047): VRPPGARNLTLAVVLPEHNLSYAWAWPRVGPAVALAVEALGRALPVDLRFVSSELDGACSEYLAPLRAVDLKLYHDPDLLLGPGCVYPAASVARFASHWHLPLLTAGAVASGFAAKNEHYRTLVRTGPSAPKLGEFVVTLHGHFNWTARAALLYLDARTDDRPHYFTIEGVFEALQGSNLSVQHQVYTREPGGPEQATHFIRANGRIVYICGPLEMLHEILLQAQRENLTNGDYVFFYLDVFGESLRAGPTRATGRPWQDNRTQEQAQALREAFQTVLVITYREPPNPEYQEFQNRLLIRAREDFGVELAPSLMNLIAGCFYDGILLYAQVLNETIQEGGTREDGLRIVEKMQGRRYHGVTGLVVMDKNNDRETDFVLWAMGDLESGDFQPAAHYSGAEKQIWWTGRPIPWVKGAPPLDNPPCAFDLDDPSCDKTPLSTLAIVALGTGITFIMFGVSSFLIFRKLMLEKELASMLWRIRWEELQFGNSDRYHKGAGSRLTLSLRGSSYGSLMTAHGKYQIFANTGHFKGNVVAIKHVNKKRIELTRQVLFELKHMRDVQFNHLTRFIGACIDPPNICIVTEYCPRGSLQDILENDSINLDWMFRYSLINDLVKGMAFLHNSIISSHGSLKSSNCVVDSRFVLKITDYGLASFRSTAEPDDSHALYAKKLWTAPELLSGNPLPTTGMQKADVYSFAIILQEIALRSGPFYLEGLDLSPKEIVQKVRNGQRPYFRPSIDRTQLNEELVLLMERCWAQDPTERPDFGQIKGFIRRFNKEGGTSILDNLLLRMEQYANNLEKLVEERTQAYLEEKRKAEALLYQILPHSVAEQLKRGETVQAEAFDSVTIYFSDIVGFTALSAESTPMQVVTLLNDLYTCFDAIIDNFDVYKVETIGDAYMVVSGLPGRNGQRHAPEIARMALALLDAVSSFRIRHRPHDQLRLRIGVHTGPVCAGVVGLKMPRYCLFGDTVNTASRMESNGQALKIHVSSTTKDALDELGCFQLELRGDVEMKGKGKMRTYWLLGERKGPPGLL
Protocol: GH3 cells were mounted on poly-L-lysine-coated coverslips and treated with either 0 or 100nM ANP or CNP in PSS during the indicated time points. Following treatment, cells were fixed with 4 % (w/v) formaldehyde for 10 min at room temperature and permeabilized with buffer (1 % [v/v] Tween-20 in 50 ml phosphate-buffered saline [PBS]) before incubation for 10 min at room temperature. Cells were then blocked with […] sodium azide dissolved in 92 % PBS, 3 % FCS and 5 % Tween-20 (v/v) for 20 min at room temperature, washed, then exposed to 1:200 diluted primary antibody solution (GC-A or GC-B, plus 0.1 % FCS and 0.1 % Tween-20) for 16 h at 4 °C. […] Following three PBS washes and a final 5-min PBS immersion at room temperature, the slides were mounted in Vectorshield (Vector Laboratories, Peterborough, UK) on standard VWR (VWR International, Leicestershire, UK) slides ready for analysis. A Leica SPS confocal scanning laser microscope was used to capture the staining, which was analyzed with Leica SPS software (Leica Microsystems, Milton Keynes, UK). […]
Fig. 5 Lack of ligand-dependent internalization of GC-B or GC-A in GH3 somatolactotrope cells. […] GC-A and GC-B immunoreactivity was detected by using Alexa488-conjugated secondary antibodies (green), whereas Alexa635-conjugated phalloidin was used to detect the actin cytoskeleton (red). […]

growth hormone secretion = settings: ref Hartt et al. [1995]; Shimekake et al. [1994]; cited from earlier work
Source text: Both humans and mice with mutations in the genes encoding either CNP or its receptor, GC-B, suffer from severe growth disorders (Chusho et al. [2001]) and, in some cases, growth hormone deficiency (Tamura et al. [2004]). Despite significant homology between the three natriuretic peptides and between their receptors, mutations in the genes encoding ANP, BNP, or GC-A fail to phenocopy CNP/GC-B-disrupted mice (Kishimoto et al. [2011]). Our recent observations of GC-B expression in normal fetal pituitary tissue and in a range of human pituitary adenomas (including those from acromegalics) strongly ...

αT3-1 cells = settings: ref Fowkes et al. [2000]; cited from earlier work
Source text: (§1) As activation of either GC-B or GC-A signaling leads to an increase in cGMP concentrations, we examined whether stimulation of each receptor would lead to the desensitization of the other receptor.

GC-A = settings: ref Suga et al. [1992]; cited from earlier work
Source text: as §1

CC[C@H](C)[C@@H]1NC(=O)[C@H](CCCNC(=N)N)NC(=O)[C@H](CC(=O)O)NC(=O)[C@H](CC(C)C)NC(=O)[C@H](CCCCN)NC(=O)[C@H](CC(C)C)NC(=O)CNC(=O)[C@H](Cc2ccccc2)NC(=O)[C@@H](NC(=O)CNC(=O)[C@H](CCCCN)NC(=O)[C@H](CO)NC(=O)[C@H](CC(C)C)NC(=O)CN)CSSC[C@@H](C(=O)O)NC(=O)CNC(=O)[C@H](CC(C)C)NC(=O)CNC(=O)[C@H](CO)NC(=O)[C@H](CCSC)NC(=O)[C@H](CO)NC(=O)CNC1=O [CNP, C-type natriuretic peptide]
GC-B internalization (GC-B): did not demonstrate any observable GC-B or GC-A internalization
growth hormone secretion (growth hormone secretion): act as growth hormone secretogogs
desensitization of the other receptor (αT3-1 cells): fail to desensitize the other receptor
activation of the reciprocal receptor (GC-A): can activate the reciprocal receptor, albeit only at pharmacological concentrations
